Source: patent US4758580A, “Inhibiting growth of tumors with certain substituted phenoxy dimethyl alkanoic acids, esters or salts” (Yamanouchi Pharmaceutical Co., Ltd., priority 1985, dated 1988)

How the values were obtained:
[1] = tested on: liver cancer (MH-134) cells; experiment: Inhibition of spontaneous metastasis (to the lymph node) of liver cancer (MH-134) cells in mice; type: in vivo, C3 H/He/SLC mice; conditions: 20th day
Method: (a) Inhibition of spontaneous metastasis (to the lymph node) of liver cancer (MH-134) cells in mice
MH-134 tumor cells, 1×10^6, on Day 7 after intraperitoneal transplantation to C3 H/He/SLC mice were transplanted to the right leg. On the 11th day after the transplantation, the right leg portion wherein the cancer cells were transplanted were cut off. The test compounds were administered orally in a definite dose 24 hours after the transplantation. In order to confirm metastasis-inhibiting effect, on 20th day of the transplantation the mice were anatomised to observe the metastasis to the lymph node in the inguinal portion. [formula] Further, the weight of the lymph node metastasis tumor in the inguinal portion of anatomised mice was measured. [formula]

Ehrlich solid tumor = experiment: Anti-tumor test against Ehrlich solid tumor; type: in vivo, ddY/SLC mice
Method: Ehrlich tumor cells, 2×10^6, on Day 7 after intraperitoneal transplantation to ddY/SLC mice were subcutaneously transplanted in the left abdomen of ddY/SLC mice (5 week age, male), 10 each grouped into one. The active component was intraperitoneally or orally administered in a definite dose 24 hours after the transplantation, according to the schedule shown in Table 1 (A), (B) or (C). An effect of inhibiting growth of tumor was compared, by measuring the long diameter and short diameter of the tumor on 14, 20 and 21 Days after the transplantation, calculating the tumor size (mm^2) and determining a tumor growth inhibition rate of the group administered with the active component to the control group according to the following equation:
Growth inhibition rate (%)=(C-T)/C×100
T: means tumor size (mm^2) in the active component-administered group
C: mean tumor size (mm^2) in the control group

Ehrlich ascites tumor = experiment: Anti-tumor effect against Ehrlich ascites tumor; type: in vivo, ddY/SLC mice
Method: Ehlrich tumor cells, 1×10^6, on Day 7 after intraperitoneal transplantation to ddY/SLC mice were intraperitoneally transplanted to ddY/SLC mice (5 week age, male) of 10 mice each being grouped in one. The active component was intraperitoneally administered in a definite dose 24 hours after the transplantation according to the schedule shown in Table 4. An effect of tumor growth inhibition was evaluated by a percentage of the median survival day of the administered group versus that of the control group, according to the following equation.
T: median survival day of the administered group
C: median survival day of the control group

melanoma BL-6 = experiment: Inhibition of experimental metastasis (to the lung) of melanoma BL-6 in mice; type: in vivo, male BDF1 /SLC mice; conditions: 22th day
Method: (b) Inhibition of experimental metastasis (to the lung) of melanoma BL-6 in mice
BL-6 cancer cells, 5×10^4, were inoculated into the tail veins of male BDF1 /SLC mice (6 week age) of 6 mice each being grouped in one (13 mice for the control group). The test compounds were administered orally in a definite dose 24 hours after the inoculation. In order to see metastasis-inhibitory effect, on 22th day after the inoculation, the mice were anatomised to observe the metastasis to the lungs. The degree of metastasis was evaluated by the number of pulmonary nodules. [formula] T: Median number of pulmonary nodules of the administered group C: Median number of pulmonary nodules of the control group

[2] = 100 mg/kg oral, 1, 3, 5, 7, 9, 11, 13 and 15 days
[3] = 200 mg/kg oral, 1, 3, 5, 7, 9, 11, 13 and 15 days
[4] = 400 mg/kg oral, 1, 3, 5, 7, 9, 11, 13 and 15 days
[5] = Day 14, 60 mg/kg i.p., Days 1, 2, 3, 4, 7, 8, 10 & 13
[6] = Day 14, 100 mg/kg i.p., Days 1, 3, 7, 10, 13 & 14
[7] = Day 14, 200 mg/kg p.o., Days 1, 2, 3, 4, 7, 8, 10 & 13
[8] = Day 21, 60 mg/kg i.p., Days 1, 2, 3, 4, 7, 8, 10 & 13
[9] = Day 21, 100 mg/kg i.p., Days 1, 3, 7, 10, 13 & 14
[10] = Day 21, 200 mg/kg p.o., Days 1, 2, 3, 4, 7, 8, 10 & 13
[11] = 100 mg/kg i.p., 1, 3, 6, 8 & 10 Days
[12] = 200 mg/kg oral, 1, 2, 3, 5, 6, 7, 8, 9 and 10 days
[13] = 400 mg/kg oral, 1, 2, 3, 5, 6, 7, 8, 9 and 10 days

`CCOC(=O)C(C)(C)CCCCOc1ccc(OCCCCCn2ccnc2)cc1` [Compound B] was tested, and the “Growth inhibition of the metastasis tumor” value [1, 2] was 33.8%, the Metastasis-inhibition rate [1, 2] was 8.5% and the “Growth inhibition of the metastasis tumor” value [1, 3] was 79.4%. The Metastasis-inhibition rate [1, 3] was 41.2%, the “Growth inhibition of the metastasis tumor” value [1, 4] was 80.4% and the Metastasis-inhibition rate [1, 4] was 73.9%. For the same compound, the “Growth Inhibition Rate” value (Ehrlich solid tumor; [5]) was 25.7%, the “Size of Tumor” value (Ehrlich solid tumor; [5]) was 107.3 ± 54.6 mm^2 and the “Growth Inhibition Rate” value (Ehrlich solid tumor; [6]) was 51.4%. The “Size of Tumor” value (Ehrlich solid tumor; [6]) was 70.1 ± 33.8 mm^2, the “Growth Inhibition Rate” value (Ehrlich solid tumor; [7]) was 66.3% and the “Size of Tumor” value (Ehrlich solid tumor; [7]) was 48.7 ± 44.3 mm^2. The “Growth Inhibition Rate” value (Ehrlich solid tumor; [8]) was 37.0%, the “Size of Tumor” value (Ehrlich solid tumor; [8]) was 323.3 ± 163.4 mm^2 and the “Growth Inhibition Rate” value (Ehrlich solid tumor; [9]) was 38.5%. For the same compound, the “Size of Tumor” value (Ehrlich solid tumor; [9]) was 315.3 ± 235.3 mm^2, the “Growth Inhibition Rate” value (Ehrlich solid tumor; [10]) was 78.7% and the “Size of Tumor” value (Ehrlich solid tumor; [10]) was 109.2 ± 133.5 mm^2. For the same compound, the “Median Survival Day” value (Ehrlich ascites tumor; 15 mg/kg i.p., 1-9 Days) was 16.0 days, the “No. of 40-day Survivors” value (Ehrlich ascites tumor; 15 mg/kg i.p., 1-9 Days) was 0/8 and the “T/C (median survival)” value (Ehrlich ascites tumor; 15 mg/kg i.p., 1-9 Days) was 106%. The “Median Survival Day” value (Ehrlich ascites tumor; 30 mg/kg i.p., 1-9 Days) was 22.5 days, the “No. of 40-day Survivors” value (Ehrlich ascites tumor; 30 mg/kg i.p., 1-9 Days) was 1/8 and the “T/C (median survival)” value (Ehrlich ascites tumor; 30 mg/kg i.p., 1-9 Days) was 150.0%. The “Median Survival Day” value (Ehrlich ascites tumor; 60 mg/kg i.p., 1-9 Days) was 21.5 days, the “No. of 40-day Survivors” value (Ehrlich ascites tumor; 60 mg/kg i.p., 1-9 Days) was 2/8 and the “T/C (median survival)” value (Ehrlich ascites tumor; 60 mg/kg i.p., 1-9 Days) was 143.3%. For the same compound, the “Median Survival Day” value (Ehrlich ascites tumor; [11]) was 26.5 days, the “No. of 40-day Survivors” value (Ehrlich ascites tumor; [11]) was 2/8 and the “T/C (median survival)” value (Ehrlich ascites tumor; [11]) was 176.7%. The Pulmonary metastasis-inhibition rate (melanoma BL-6; [12]) was 50.0%, the “The number of pulmonary nodules, median” value (melanoma BL-6; [12]) was 10.5 and the “The number of pulmonary nodules, range” value (melanoma BL-6; [12]) was 1-20. For the same compound, the Pulmonary metastasis-inhibition rate (melanoma BL-6; [13]) was 69.0%, the “The number of pulmonary nodules, median” value (melanoma BL-6; [13]) was 6.5 and the “The number of pulmonary nodules, range” value (melanoma BL-6; [13]) was 1-14.
